Measured values as given in ChEMBL document CHEMBL1275440, “In vitro activity of telavancin against resistant gram-positive bacteria” (2008).
≈ marks a conversion by molar mass, not a printed value. Calls of active or inactive are those of the source. The rule behind the calls is not given here.

Columns and labels:
[1] = system: Staphylococcus saprophyticus; test: Antibacterial activity against methicillin resistant coagulase-negative Staphylococcus saprophyticus clinical isolate assessed as susceptibility level by broth microdilution method; format: functional
[2] = Antibacterial activity against methicillin resistant coagulase-negative Staphylococcus hominis subsp. novobiosepticus clinical isolate by broth microdilution method; format: functional
Staphylococcus capitis [3] = test: Antibacterial activity against methicillin resistant coagulase-negative Staphylococcus capitis clinical isolate by broth microdilution method; format: functional
Staphylococcus capitis [4] = test: Antibacterial activity against methicillin resistant coagulase-negative Staphylococcus capitis clinical isolate assessed as susceptibility level by broth microdilution method; format: functional
[5] = system: Staphylococcus auricularis; test: Antibacterial activity against methicillin resistant coagulase-negative Staphylococcus auricularis clinical isolate by broth microdilution method; format: functional
Enterococcus faecium [6] = test: Antibacterial activity against vancomycin resistant Enterococcus faecium VanB clinical isolate by broth microdilution method; format: functional
[7] = system: Staphylococcus saprophyticus; test: Antibacterial activity against methicillin resistant coagulase-negative Staphylococcus saprophyticus clinical isolate by broth microdilution method; format: functional
Enterococcus faecalis [8] = test: Antibacterial activity against vancomycin resistant Enterococcus faecalis VanB clinical isolate assessed as susceptibility level by broth microdilution method; format: functional
[9] = system: Staphylococcus epidermidis; test: Antibacterial activity against methicillin resistant Staphylococcus epidermidis clinical isolate by broth microdilution method; format: functional
Enterococcus faecalis [10] = test: Antibacterial activity against vancomycin resistant Enterococcus faecalis VanA clinical isolate assessed as susceptibility level by broth microdilution method; format: functional
Enterococcus faecium [11] = test: Antibacterial activity against vancomycin resistant Enterococcus faecium VanA clinical isolate by broth microdilution method; format: functional
Enterococcus faecium [12] = test: Antibacterial activity against vancomycin resistant Enterococcus faecium VanA clinical isolate assessed as susceptibility level by broth microdilution method; format: functional
[13] = system: Staphylococcus haemolyticus; test: Antibacterial activity against methicillin resistant coagulase-negative Staphylococcus haemolyticus clinical isolate by broth microdilution method; format: functional
Enterococcus faecium [14] = test: Antibacterial activity against vancomycin resistant Enterococcus faecium VanB clinical isolate assessed as susceptibility level by broth microdilution method; format: functional
[15] = system: Staphylococcus auricularis; test: Antibacterial activity against methicillin resistant coagulase-negative Staphylococcus auricularis clinical isolate assessed as susceptibility level by broth microdilution method; format: functional
Staphylococcus aureus [16] = test: Antibacterial activity against methicillin resistant Staphylococcus aureus clinical isolate assessed as susceptibility level by broth microdilution method; format: functional
Enterococcus faecalis [17] = test: Antibacterial activity against vancomycin resistant Enterococcus faecalis VanB clinical isolate by broth microdilution method; format: functional
[18] = Antibacterial activity against methicillin resistant coagulase-negative Staphylococcus hominis subsp. novobiosepticus clinical isolate assessed as susceptibility level by broth microdilution method; format: functional
Staphylococcus aureus [19] = test: Antibacterial activity against methicillin resistant Staphylococcus aureus clinical isolate by broth microdilution method; format: functional; settings: for MIC50 / MIC90: Staphylococcus aureus
[20] = system: Staphylococcus epidermidis; test: Antibacterial activity against methicillin resistant Staphylococcus epidermidis clinical isolate assessed as susceptibility level by broth microdilution method; format: functional
Enterococcus faecalis [21] = test: Antibacterial activity against vancomycin resistant Enterococcus faecalis VanA clinical isolate by broth microdilution method; format: functional
Enterococcus faecalis [22] = system: Enterococcus faecalis
[23] = system: Staphylococcus haemolyticus; test: Antibacterial activity against methicillin resistant coagulase-negative Staphylococcus haemolyticus clinical isolate assessed as susceptibility level by broth microdilution method; format: functional
[24] = system: Streptococcus intermedius; test: Antibacterial activity against Streptococcus intermedius clinical isolate assessed as susceptibility level by broth microdilution method; format: functional
Streptococcus agalactiae [25] = test: Antibacterial activity against Streptococcus agalactiae group B clinical isolate assessed as susceptibility level by broth microdilution method; format: functional
Streptococcus pneumoniae [26] = test: Antibacterial activity against multidrug-resistant Streptococcus pneumoniae clinical isolate assessed as susceptibility level by broth microdilution method; format: functional
Streptococcus pneumoniae [27] = test: Antibacterial activity against penicillin resistant Streptococcus pneumoniae clinical isolate assessed as susceptibility level by broth microdilution method; format: functional
Streptococcus pyogenes [28] = test: Antibacterial activity against Streptococcus pyogenes group A clinical isolate by broth microdilution method; format: functional
Streptococcus pneumoniae [29] = test: Antibacterial activity against penicillin intermediate Streptococcus pneumoniae clinical isolate assessed as susceptibility level by broth microdilution method; format: functional
Streptococcus oralis [30] = test: Antibacterial activity against Streptococcus oralis clinical isolate assessed as susceptibility level by broth microdilution method; format: functional
Streptococcus oralis [31] = test: Antibacterial activity against Streptococcus oralis clinical isolate by broth microdilution method; format: functional
[32] = system: Streptococcus constellatus; test: Antibacterial activity against Streptococcus constellatus clinical isolate by broth microdilution method; format: functional
Streptococcus pyogenes [33] = test: Antibacterial activity against Streptococcus pyogenes group A clinical isolate assessed as susceptibility level by broth microdilution method; format: functional
Streptococcus pneumoniae [34] = test: Antibacterial activity against penicillin resistant Streptococcus pneumoniae clinical isolate by broth microdilution method; format: functional
Streptococcus mitis [35] = test: Antibacterial activity against Streptococcus mitis clinical isolate assessed as susceptibility level by broth microdilution method; format: functional
Streptococcus pneumoniae [36] = test: Antibacterial activity against penicillin intermediate Streptococcus pneumoniae clinical isolate by broth microdilution method; format: functional
Streptococcus viridans [37] = test: Antibacterial activity against Streptococcus viridans clinical isolate assessed as susceptibility level by broth microdilution method; format: functional
[38] = system: Streptococcus intermedius; test: Antibacterial activity against Streptococcus intermedius clinical isolate by broth microdilution method; format: functional
Streptococcus pneumoniae [39] = test: Antibacterial activity against multidrug-resistant Streptococcus pneumoniae clinical isolate by broth microdilution method; format: functional
Streptococcus mitis [40] = test: Antibacterial activity against Streptococcus mitis clinical isolate by broth microdilution method; format: functional
[41] = system: Streptococcus constellatus; test: Antibacterial activity against Streptococcus constellatus clinical isolate assessed as susceptibility level by broth microdilution method; format: functional
Streptococcus agalactiae [42] = test: Antibacterial activity against Streptococcus agalactiae group B clinical isolate by broth microdilution method; format: functional
Streptococcus viridans [43] = test: Antibacterial activity against Streptococcus viridans clinical isolate by broth microdilution method; format: functional

In the case of CC(=O)N[C@@H]1[C@H](Oc2c3cc4cc2Oc2ccc(cc2Cl)[C@@H](O[C@@H]2O[C@@H](CO)[C@@H](O)[C@H](O)[C@@H]2NC(C)=O)[C@@H]2NC(=O)[C@H](NC(=O)[C@@H]4NC(=O)[C@H]4NC(=O)[C@@H](Cc5ccc(c(Cl)c5)O3)NC(=O)[C@H](N)c3ccc(O)c(c3)Oc3cc(O)cc4c3)c3ccc(O)c(c3)-c3c(O[C@H]4O[C@H](CO)[C@@H](O)[C@@H](O)[C@@H]4O)cc(O)cc3[C@@H](C(=O)O)NC2=O)O[C@@H](CO)[C@@H](O)[C@@H]1O, the Activity [1] is reported as 88%, the MIC50 [2] is reported as 4 µg/mL (≈ 2.26 µM) and the MIC90 [2] is reported as 32 µg/mL (≈ 18.1 µM). For the same compound, the MIC50 (Staphylococcus capitis [3]) was 4 µg/mL (≈ 2.26 µM), the MIC90 (Staphylococcus capitis [3]) was 32 µg/mL (≈ 18.1 µM) and the Activity (Staphylococcus capitis [4]) was 88%. It also gave an MIC50 [5] of 4 µg/mL (≈ 2.26 µM), an MIC90 [5] of 32 µg/mL (≈ 18.1 µM) and an MIC50 (Enterococcus faecium [6]) of 0.5 µg/mL (≈ 0.283 µM). For the same compound, the MIC90 (Enterococcus faecium [6]) was 1 µg/mL (≈ 0.566 µM), the MIC50 [7] was 4 µg/mL (≈ 2.26 µM) and the MIC90 [7] was 32 µg/mL (≈ 18.1 µM). The Activity (Enterococcus faecalis [8]) was 100%, the MIC50 [9] was 8 µg/mL (≈ 4.53 µM) and the MIC90 [9] was 16 µg/mL (≈ 9.05 µM). The “Percent of isolates susceptible” value (Enterococcus faecalis [10]) was 0%, the MIC50 (Enterococcus faecium [11]) was 64 µg/mL (≈ 36.2 µM) and the MIC90 (Enterococcus faecium [11]) was greater than 128 µg/mL. For the same compound, the Activity (Enterococcus faecium [12]) was 0%, the MIC50 [13] was 4 µg/mL (≈ 2.26 µM) and the MIC90 [13] was 32 µg/mL (≈ 18.1 µM). For the same compound, the Activity (Enterococcus faecium [14]) was 100%, the Activity [15] was 88% and the Activity (Staphylococcus aureus [16]) was 32%. For the same compound, the MIC (Enterococcus faecalis [17]) was 0.5 µg/mL (≈ 0.283 µM), the Activity [18] was 88% and the Activity (Staphylococcus aureus [19]) was 32%. It also gave an MIC50 (Staphylococcus aureus [19]) of 0.5 µg/mL (≈ 0.283 µM), an MIC90 (Staphylococcus aureus [19]) of 1 µg/mL (≈ 0.566 µM) and an Activity [20] of 81%. For the same compound, the MIC50 (Enterococcus faecalis [21]) was 64 µg/mL (≈ 36.2 µM), the MIC90 (Enterococcus faecalis [21]) was greater than 128 µg/mL and the MIC50 (Enterococcus faecalis [22]) was “inactive”. For the same compound, the MIC90 (Enterococcus faecalis [22]) was “inactive” and the Activity [23] was 88%.

With CC1(C)S[C@@H]2[C@H](NC(=O)[C@H](N)c3ccccc3)C(=O)N2[C@H]1C(=O)O [AMPICILLIN] the MIC50 (Enterococcus faecium [6]) was 64 µg/mL (≈ 183 µM), the MIC90 (Enterococcus faecium [6]) was 64 µg/mL (≈ 183 µM) and the Activity (Enterococcus faecalis [8]) was 60%. The “Percent of isolates susceptible” value (Enterococcus faecalis [10]) was 81%, the MIC50 (Enterococcus faecium [11]) was 64 µg/mL (≈ 183 µM) and the MIC90 (Enterococcus faecium [11]) was 128 µg/mL (≈ 366 µM). It also gave an Activity (Enterococcus faecium [12]) of 0%, an Activity (Enterococcus faecium [14]) of 22% and an MIC (Enterococcus faecalis [17]) of no more than 0.25 µg/mL. The MIC50 (Enterococcus faecalis [21]) was 1 µg/mL (≈ 2.86 µM), the MIC90 (Enterococcus faecalis [21]) was 64 µg/mL (≈ 183 µM) and the MIC50 (Enterococcus faecalis [22]) was “inactive”. For the same compound, the MIC90 (Enterococcus faecalis [22]) was “inactive”.

In the case of CC[C@H]1OC(=O)[C@H](C)[C@@H](O[C@H]2C[C@@](C)(OC)[C@@H](O)[C@H](C)O2)[C@H](C)[C@@H](O[C@@H]2O[C@H](C)C[C@H](N(C)C)[C@H]2O)[C@](C)(O)C[C@@H](C)C(=O)[C@H](C)[C@@H](O)[C@]1(C)O [ERYTHROMYCIN], the Activity [1] is reported as 18%, the Activity [24] is reported as 63% and the MIC50 [2] is reported as greater than 16 µg/mL. For the same compound, the MIC90 [2] was greater than 16 µg/mL, the Activity (Streptococcus agalactiae [25]) was 62% and the Activity (Streptococcus pneumoniae [26]) was 13%. The MIC50 (Staphylococcus capitis [3]) was greater than 16 µg/mL, the MIC90 (Staphylococcus capitis [3]) was greater than 16 µg/mL and the Activity (Staphylococcus capitis [4]) was 18%. For the same compound, the MIC50 [5] was greater than 16 µg/mL, the MIC90 [5] was greater than 16 µg/mL and the MIC50 [7] was greater than 16 µg/mL. For the same compound, the MIC90 [7] was greater than 16 µg/mL, the Activity (Streptococcus pneumoniae [27]) was 20% and the MIC50 [9] was greater than 16 µg/mL. The MIC90 [9] was greater than 16 µg/mL, the MIC50 (Streptococcus pyogenes [28]) was 0.03 µg/mL (≈ 0.0409 µM) and the MIC90 (Streptococcus pyogenes [28]) was greater than 1 µg/mL. It also gave an Activity (Streptococcus pneumoniae [29]) of 42%, an Activity (Streptococcus oralis [30]) of 63% and an MIC (Streptococcus oralis [31]) of no more than 0.015 µg/mL. The MIC50 (Streptococcus oralis [31]) was “inactive”, the MIC90 (Streptococcus oralis [31]) was “inactive” and the MIC50 [13] was greater than 16 µg/mL. The MIC90 [13] was greater than 16 µg/mL, the MIC [32] was no more than 0.015 µg/mL and the MIC50 [32] was “inactive”. For the same compound, the MIC90 [32] was “inactive”, the Activity (Streptococcus pyogenes [33]) was 89% and the MIC (Streptococcus pneumoniae [34]) was 0.03 µg/mL (≈ 0.0409 µM). The Activity (Streptococcus mitis [35]) was 63%, the MIC50 (Streptococcus pneumoniae [36]) was greater than 1 µg/mL and the MIC90 (Streptococcus pneumoniae [36]) was greater than 1 µg/mL. The Activity (Streptococcus viridans [37]) was 63%, the MIC [38] was no more than 0.015 µg/mL and the MIC50 [38] was “inactive”. For the same compound, the MIC90 [38] was “inactive”, the Activity [15] was 18% and the Activity (Staphylococcus aureus [16]) was 2%. For the same compound, the MIC (Streptococcus pneumoniae [39]) was 0.03 µg/mL (≈ 0.0409 µM), the Activity [18] was 18% and the Activity (Staphylococcus aureus [19]) was 2%. The MIC50 (Staphylococcus aureus [19]) was greater than 16 µg/mL, the MIC90 (Staphylococcus aureus [19]) was greater than 16 µg/mL and the Activity [20] was 15%. The MIC (Streptococcus mitis [40]) was no more than 0.015 µg/mL, the MIC50 (Streptococcus mitis [40]) was “inactive” and the MIC90 (Streptococcus mitis [40]) was “inactive”. For the same compound, the Activity [41] was 63%, the MIC50 (Streptococcus agalactiae [42]) was 0.06 µg/mL (≈ 0.0818 µM) and the MIC90 (Streptococcus agalactiae [42]) was greater than 1 µg/mL. For the same compound, the Activity [23] was 18%, the MIC (Streptococcus viridans [43]) was no more than 0.015 µg/mL and the MIC50 (Streptococcus viridans [43]) was “inactive”. The MIC90 (Streptococcus viridans [43]) was “inactive”.
